# According to patent US20230107216A1, “PANTETHEINE DERIVATIVES AND USES THEREOF” (Comet Therapeutics, Inc., priority 2018, published 2023):
# Like-named read-outs stand apart in the source and are kept apart here.
# Tests used:
# Format in all cases: cell-based
# [1] = tested on: Propionic Acidemia (PA) primary fibroblasts GM00371; assay: Mitochondrial respiration, XFe96 Extracellular Flux Analyzer (OCR/ECAR), PA fibroblasts GM00371; conditions: Homo sapiens, Fibroblast
# HepG2 cells [2] = assay: Glucose uptake (Glucose Uptake-Glo); conditions: Homo sapiens, read-out: % increase in Glucose Uptake
# HepG2 cells [3] = assay: Mitochondrial membrane potential (MITO-ID MP detection Kit); conditions: Homo sapiens, 168 h, 7 days; for inhibition at 50 µM / inhibition at 10 µM: read-out: % decrease in Mitochondrial Membrane Potential; for activation at 10 µM: read-out: % increase in Mitochondrial Membrane Potential
# Method in brief: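 Cells plated at 160000 cells/mL in DMEM with 10% FBS and 1% Pen-Strep, adhered overnight at 37° C., 5% CO2. Exposure to test compounds (50-10 μM) or 0.2% DMSO for 7 days without media change; membrane potential measured with MITO-ID MP detection kit per manufacturer.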
# [4] = assay condition D (1 mM glucose, 10% FBS), read-out: Increase in Spare Capacity AUC
# [5] = assay condition C (10 mM glucose, 10% FBS), read-out: Increase in Maximal Respiratory Capacity AUC
# [6] = assay condition D (1 mM glucose, 10% FBS), read-out: Increase in Maximal Respiratory Capacity AUC
# [7] = assay condition A (10 mM glucose, 2 mM L-glutamine, 1 mM pyruvate, 10% FBS), read-out: Increase in Spare Capacity AUC
# [8] = assay condition A (10 mM glucose, 2 mM L-glutamine, 1 mM pyruvate, 10% FBS), read-out: Increase in Maximal Respiratory Capacity AUC
compound,measurement,setting,value
"COC(=O)CCC(=O)SCCNC(=O)CCNC(=O)[C@H](OC(=O)CN)C(C)(C)CO [Compound 1294, methyl 4-[(2-[3-[(2R)-2-[(2-aminoacetyl)oxy]-4-hydroxy-3,3-dimethylbutanamido]propanamido]ethyl)sulfanyl]-4-oxobutanoate]",activation at 10 µM,[1]; [4],≥ 30%
same,activation at 10 µM,HepG2 cells [2],≥ 30%
"CCCCCCC(=O)SCCNC(=O)CCNC(=O)[C@H](O)C(C)(C)CO [Compound 372, (2R)—N-(2-[[2-(heptanoylsulfanyl)ethyl]carbamoyl]ethyl)-2,4-dihydroxy-3,3-dimethylbutanamide]",activation at 50 µM,[1]; [5],≥ 10%
"CC(=O)SCCNC(=O)CCNC(=O)[C@H](O)C(C)(C)COC(=O)[C@@H](N)Cc1ccc(O)c(O)c1 [Compound 498, (3R)-3-[(2-[[2-(acetylsulfanyl)ethyl]carbamoyl]ethyl)carbamoyl]-3-hydroxy-2,2-dimethylpropyl (2S)-2-amino-3-(3,4-dihydroxyphenyl)propanoate]",activation at 10 µM,[1]; [6],≥ 10%
same,activation at 50 µM,HepG2 cells [2],≥ 10%
"CC(C)(CO)[C@@H](O)C(=O)NCCC(=O)NCCSC(=O)[C@@H](N)Cc1ccc(O)c(O)c1 [Compound 371, (2R)—N-[2-[(2-[[(2S)-2-amino-3-(3,4-dihydroxyphenyl)propanoyl]sulfanyl]ethyl)carbamoyl]ethyl]-2,4-dihydroxy-3,3-dimethylbutanamide]",activation at 10 µM,HepG2 cells [2],≥ 30%
"CCC(C)C(=O)CC(=O)SCCNC(=O)CCNC(=O)[C@H](O)C(C)(C)CO (stereo partly drawn) [Compound 1240, S-(2-(3-((R)-2,4-dihydroxy-3,3-dimethylbutanamido)propanamido)ethyl) 4-methyl-3-oxohexanethioate]",inhibition at 50 µM,HepG2 cells [3],> 50%
"CC(C)(CO)[C@@H](O)C(=O)NCCC(=O)NCCSC(=O)C1CCC(=O)N1 (stereo partly drawn) [Compound 1227, S-2-{3-[(R)-2,4-dihydroxy-3,3-dimethylbutyrylamino]propionylamino}ethyl 5-oxo-2-pyrrolidinecarbothioate]",inhibition at 10 µM,HepG2 cells [3],> 30%
"CC(C)(CO)[C@@H](O)C(=O)NCCC(=O)NCCSC(CC(=O)OCC[N+](C)(C)C)C(=O)O (stereo partly drawn) [Compound 51, [2-([3-carboxy-3-[(2-[3-[(2R)-2,4-dihydroxy-3,3-dimethylbutanamido]propanamido]ethyl)sulfanyl]propanoyl]oxy)ethyl]trimethylazanium]",activation at 10 µM,HepG2 cells [3],> 10%
same,activation at 50 µM,[1]; [5],≥ 10%
same,activation at 10 µM,HepG2 cells [2],≥ 30%
"CC1(CC(=O)SCCNC(=O)CCNC(=O)[C@H](O)C(C)(C)CO)OCCO1 [Compound 1252, (R)—S-(2-(3-(2,4-dihydroxy-3,3-dimethylbutanamido)propanamido)ethyl)-2-(2-methyl-1,3-dioxolan-2-yl)ethanethioate]",activation at 10 µM,HepG2 cells [3],> 20%
"COC(=O)CCC(=O)SCCNC(=O)CCNC(=O)[C@H](OC(=O)CNC(C)=O)C(C)(C)CO [Compound 1298, methyl 4-[(2-[3-[(2R)-2-[(2-acetamidoacetyl)oxy]-4-hydroxy-3,3-dimethylbutanamido]propanamido]ethyl)sulfanyl]-4-oxobutanoate]",activation at 10 µM,[1]; [7],≥ 30%
same,activation at 50 µM,[1]; [7],≥ 50%
same,activation at 10 µM,[1]; [4],≥ 30%
same,activation at 50 µM,[1]; [6],≥ 10%
same,activation at 50 µM,HepG2 cells [2],≥ 20%
"CC(C)(CO)[C@@H](O)C(=O)NCCC(=O)NCCSC(=O)CCCN [Compound 370, (2R)—N-[2-([2-[(4-aminobutanoyl)sulfanyl]ethyl]carbamoyl)ethyl]-2,4-dihydroxy-3,3-dimethylbutanamide]",activation at 10 µM,[1]; [8],≥ 10%
same,activation at 50 µM,[1]; [5],≥ 10%
same,activation at 10 µM,[1]; [6],≥ 10%
same,activation at 50 µM,HepG2 cells [2],≥ 30%
"COC(=O)/C=C/C(=O)SCCNC(=O)CCNC(=O)[C@H](O)C(C)(C)COP(=O)(O)O [Compound 73, methyl (R,E)-4-((2-(3-(2-hydroxy-3,3-dimethyl-4-(phosphonooxy)butanamido)propanamido)ethyl)thio)-4-oxobut-2-enoate]",inhibition at 50 µM,HepG2 cells [3],> 30%
CC(C)(CO)[C@@H](O)C(=O)NCCC(=O)NCCSC(=O)CC(O)C(=O)O (stereo partly shown) [Compound 39],inhibition at 50 µM,HepG2 cells [3],> 50%
"CC(=O)SCCNC(=O)CCNC(=O)[C@H](O)C(C)(C)COC(=O)[C@H](C)N [Compound 502, (3R)-3-[(2-[[2-(acetylsulfanyl)ethyl]carbamoyl]ethyl)carbamoyl]-3-hydroxy-2,2-dimethylpropyl (2S)-2-aminopropanoate]",activation at 10 µM,[1]; [8],≥ 30%
same,activation at 50 µM,[1]; [8],≥ 10%
"C[C@H](O)CC(=O)CC(=O)SCCNC(=O)CCNC(=O)[C@H](O)C(C)(C)CO [Compound 1306, (2R)-2,4-dihydroxy-N-[2-[(2-[[(5S)-5-hydroxy-3-oxohexanoyl]sulfanyl]ethyl)carbamoyl]ethyl]-3,3-dimethylbutanamide]",activation at 10 µM,HepG2 cells [2],≥ 30%
COC(=O)C(C)C(=O)SCCNC(=O)CCNC(=O)[C@H](O)C(C)(C)CO (stereo partly shown) [Compound 405],inhibition at 50 µM,HepG2 cells [3],> 50%
"CC(C)(COC(=O)CCC(=O)O)[C@@H](O)C(=O)NCCC(=O)NCCS [Compound 1310, (R)-4-(3-hydroxy-4-((3-((2-mercaptoethyl)amino)-3-oxopropyl)amino)-2,2-dimethyl-4-oxobutoxy)-4-oxobutanoic acid]",activation at 10 µM,HepG2 cells [3],20%
same,inhibition at 50 µM,HepG2 cells [3],> 30%
COC(=O)CC[C@H](N)C(=O)SCCNC(=O)CCNC(=O)[C@H](O)C(C)(C)CO [Compound 411],activation at 10 µM,HepG2 cells [3],10%
same,inhibition at 50 µM,HepG2 cells [3],> 20%
same,activation at 10 µM,[1]; [7],≥ 30%
"COC(=O)CCC(=O)SCCNC(=O)CCNC(=O)[C@H](O)C(C)(C)CO [Compound 4, Methyl (R)-4-((2-(3-(2,4-dihydroxy-3,3-dimethylbutanamido)propanamido)ethyl)thio)-4-oxobutanoate]",inhibition at 10 µM,HepG2 cells [3],> 30%
"CC(C)(CO)[C@@H](O)C(=O)NCCC(=O)NCCSC(=O)CCC(=O)O [Compound 1, (R)-4-((2-(3-(2,4-dihydroxy-3,3-dimethylbutanamido)propanamido)ethyl)thio)-4-oxobutanoic acid]",activation at 50 µM,[1]; [5],≥ 10%
same,activation at 10 µM,[1]; [4],≥ 10%
same,activation at 10 µM,HepG2 cells [2],≥ 30%
"CC(C)(CO)[C@@H](OC(=O)CCC(=O)O)C(=O)NCCC(=O)NCCS [Compound 1311, (R)-4-((4-hydroxy-1-((3-((2-mercaptoethyl)amino)-3-oxopropyl)amino)-3,3-dimethyl-1-oxobutan-2-yl)oxy)-4-oxobutanoic acid]",activation at 10 µM,HepG2 cells [3],> 10%
"CC(C)(CO)[C@@H](O)C(=O)NCCC(=O)NCCSC(=O)CCCO [Compound 1304, (2R)-2,4-dihydroxy-N-[2-([2-[(4-hydroxybutanoyl)sulfanyl]ethyl]carbamoyl)ethyl]-3,3-dimethylbutanamide]",activation at 10 µM,HepG2 cells [2],≥ 20%
"C/C=C/C(=O)SCCNC(=O)CCNC(=O)[C@H](O)C(C)(C)COP(=O)(O)O [Compound 82, (R)—S-(2-(3-(2-hydroxy-3,3-dimethyl-4-(phosphonooxy)butanamido)propanamido)ethyl) (E)-but-2-enethioate]",activation at 10 µM,HepG2 cells [3],10%
same,inhibition at 50 µM,HepG2 cells [3],> 20%
